Drawing on patent US20260042755A1, “GPR6 INVERSE AGONISTS” (MapLight Therapeutics, Inc., priority 2022, published 2026), this text covers IC50 for 21 compounds.

The target in assay [1] is T1, GPR6 (Homo sapiens, UniProt P46095).
T1 construct: expressed in transfected cells; host or cells: CHO cells
The experiment in a line: GPR6 antagonist functional cAMP assay (LANCE Ultra cAMP TR-FRET, CHO cells stably expressing GPR6). The assay is classed as cell-based. The gist of the method: (§1)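 Compounds, at 0.1% final DMSO, acted on the cells for 45 minutes at 37 °C in the presence of the phosphodiesterase inhibitor Ro 20-1724 (150 μM). After lysis and detection, plates were shaken 1 h at room temperature and emission at 665 nm was recorded. Normalized data gave IC50 values.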
A general note: Cyclic AMP is a second messenger, typically raised through Gs and lowered through Gi signalling.

Assay [2] has as its target T2, GPR3 (Homo sapiens, UniProt P46089).
T2 construct: expressed in transfected cells; host or cells: CHO cells
The experiment in a line: GPR3 antagonist functional cAMP assay (LANCE Ultra cAMP TR-FRET, CHO cells stably expressing GPR3). Format: cell-based. In a few lines: as §1

[3] abbreviates: CHO cells stably expressing GPR6, cAMP assay (Example 24).
[4] abbreviates: CHO cells stably expressing GPR3, cAMP assay (Example 24).
Where [5] appears, read: CHO cells stably expressing GPR6, cAMP assay.
The mark [6] stands for this setting: CHO cells stably expressing GPR3, cAMP assay.

pIC50: −log10 of the molar value.

As a reminder, the pIC50 is −log10 of the IC50, conventionally taken in molar units. A higher pIC50 goes with a small IC50.

T2 sequence (P46089 whole entry, species assumed): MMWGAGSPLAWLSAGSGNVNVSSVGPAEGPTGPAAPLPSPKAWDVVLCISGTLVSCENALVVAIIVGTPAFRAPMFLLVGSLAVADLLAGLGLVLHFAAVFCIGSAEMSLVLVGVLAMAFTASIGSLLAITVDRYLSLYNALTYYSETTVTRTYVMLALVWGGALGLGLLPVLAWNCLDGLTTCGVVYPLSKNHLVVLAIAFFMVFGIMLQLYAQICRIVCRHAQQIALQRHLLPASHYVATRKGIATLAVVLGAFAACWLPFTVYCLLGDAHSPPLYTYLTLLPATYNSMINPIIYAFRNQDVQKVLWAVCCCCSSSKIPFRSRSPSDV
T1 sequence (P46095 whole entry): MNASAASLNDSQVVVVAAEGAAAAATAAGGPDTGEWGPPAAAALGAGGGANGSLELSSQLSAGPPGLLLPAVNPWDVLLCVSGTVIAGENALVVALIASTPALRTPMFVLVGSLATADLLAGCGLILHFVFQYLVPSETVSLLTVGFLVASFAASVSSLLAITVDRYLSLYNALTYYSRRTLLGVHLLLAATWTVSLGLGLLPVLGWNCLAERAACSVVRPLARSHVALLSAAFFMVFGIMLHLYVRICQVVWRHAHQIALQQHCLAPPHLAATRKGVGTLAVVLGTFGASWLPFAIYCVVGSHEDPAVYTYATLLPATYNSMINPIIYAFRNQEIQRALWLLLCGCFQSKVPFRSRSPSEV

Regarding `CC(=O)N1CCc2nc(N3CCC(Oc4ccc(F)cc4F)CC3)c(-c3cnn4c3CN(C)CC4)nc2C1` [Compound 110, 1-{2-[4-(2,4-difluorophenoxy)piperidin-1-yl]-3-{5-methyl-4H,5H,6H,7H-pyrazolo[1,5-a]pyrazin-3-yl}-5H,6H,7H,8H-pyrido[3,4-b]pyrazin-6-yl}ethan-1-one], the pIC50 in assay [1] (setting [3]) and in assay [2] (setting [4]) was 4.52 to 6.00 each time.
As to `CC(=O)N1CCc2nc(N3CCC(Oc4ccc(F)cc4F)CC3)c(-c3ccc[nH]c3=O)nc2C1` [Compound 157, 3-{6-acetyl-2-[4-(2,4-difluorophenoxy)piperidin-1-yl]-5H,6H,7H,8H-pyrido[3,4-b]pyrazin-3-yl}-1,2-dihydropyridin-2-one], the pIC50 in assay [1] (setting [3]) and in assay [2] (setting [4]) was at most 4.52 each time.
Take `CC(=O)N1CCc2nc(N3CCC(Oc4ccc(F)cc4F)CC3)c(-c3c[nH]c(C)n3)nc2C1` [Compound 116, 1-{2-[4-(2,4-difluorophenoxy)piperidin-1-yl]-3-(2-methyl-1H-imidazol-4-yl)-5H,6H,7H,8H-pyrido[3,4-b]pyrazin-6-yl}ethan-1-one]: the negative-log IC50 (pIC50) is 6.00 to 7.00 in assay [1] (setting [3]) and 4.52 to 6.00 in assay [2] (setting [4]).
As to `COCC(C)(O)c1cc2nc(N3CCC(Oc4ccc(F)cc4F)CC3)c(-c3cnn(C)c3)nc2cn1` (stereo not drawn) [Compound 567, 2-{2-[4-(2,4-difluorophenoxy)-1-piperidyl]-3-(1-methyl-4-pyrazolyl)-1,4,6-triaza-7-naphthyl}-1-methoxy-2-propanol], the negative logarithm of the IC50 (pIC50) in assay [1] (setting [5]) was 6.00 to 7.00; in assay [2] (setting [6]), 4.52 to 6.00.
On to `CC(=O)N1CCc2nc(N3CCN(Cc4c(F)cccc4F)CC3)c(-c3cnn(C)c3)nc2C1` [Compound 346, 1-(2-{4-[(2,6-difluorophenyl)methyl]piperazin-1-yl}-3-(1-methyl-1H-pyrazol-4-yl)-5H,6H,7H,8H-pyrido[3,4-b]pyrazin-6-yl)ethan-1-one], for which the negative-log IC50 (pIC50) in assay [1] (procedure of Example 24) was 4.52 to 6.00; in assay [2] (procedure of Example 24) it was 6.00 to 7.00.
`COC(=O)c1cc2nc(N3CCC(Oc4ccc(F)cc4F)CC3)c(-c3cnn(C)c3)nc2cn1` [Compound 251, methyl 2-[4-(2,4-difluorophenoxy)piperidin-1-yl]-3-(1-methyl-1H-pyrazol-4-yl)pyrido[3,4-b]pyrazine-7-carboxylate]: the pIC50 in assay [1] (setting [3]) and in assay [2] (setting [4]) was 4.52 to 6.00 each time.
As to `CC(=O)N1CCc2nc(N3CCC(Oc4ccc(F)cc4F)CC3)c(-c3cnn(C4CS(=O)(=O)C4)c3)nc2C1` [Compound 82, 3-(4-{6-acetyl-2-[4-(2,4-difluorophenoxy)piperidin-1-yl]-5H,6H,7H,8H-pyrido[3,4-b]pyrazin-3-yl}-1H-pyrazol-1-yl)-1λ^6-thietane-1,1-dione], the negative logarithm of the IC50 (pIC50) in assay [1] (setting [3]) and in assay [2] (setting [4]) was 4.52 to 6.00 throughout.
For the compound `CC(O)c1cc2nc(N3CCC(Oc4ccc(F)cc4F)CC3)c(-c3cnn(C)c3)nc2cn1` (stereo not drawn) [Compound 467, 1-{2-[4-(2,4-difluorophenoxy)piperidin-1-yl]-3-(1-methyl-1H-pyrazol-4-yl)pyrido[3,4-b]pyrazin-7-yl}ethan-1-ol], the negative logarithm of the IC50 (pIC50) in assay [1] (setting [3]) and in assay [2] (setting [4]) was 4.52 to 6.00 each time.
On to `CNc1cc2nc(N3CCC(Oc4ccc(F)cc4F)CC3)c(-c3cnn(C)c3)nc2cn1` [Compound 433, 2-(4-(2,4-difluorophenoxy)piperidin-1-yl)-N-methyl-3-(1-methyl-1H-pyrazol-4-yl)pyrido[3,4-b]pyrazin-7-amine], for which the pIC50 in assay [1] (setting [3]) and in assay [2] (setting [4]) was 4.52 to 6.00 in each case.
Regarding `Cn1cc(-c2nc3cncc(Cl)c3nc2N2CCC(Oc3ccc(F)cc3F)CC2)cn1` [Compound 411, 1-[8-chloro-3-(1-methyl-1H-pyrazol-4-yl)pyrido[3,4-b]pyrazin-2-yl]-4-(2,4-difluorophenoxy)piperidine], the pIC50 in assay [1] (setting [3]) and in assay [2] (setting [4]) was 4.52 to 6.00 in each case.
In the case of `CC(C)(O)[C@@H](O)c1cc2nc(N3CCC(=Cc4ccc(F)cc4F)CC3)c(-c3cnn(C4CC4)c3)nc2cn1` (single isomer, unassigned) [Compound 769], the pIC50 in assay [1] (procedure of Example 24) was 6.00 to 7.00; in assay [2] (procedure of Example 24) it was 4.52 to 6.00.
For the compound `CC(C)(O)C(O)c1cc2nc(-c3cnn(C4CC4)c3)c(N3CCC(Oc4ccc(F)cc4F)CC3)nc2cn1` (single isomer, unassigned) [Compound 591], the pIC50 in assay [1] (setting [5]) is over 7.00; in assay [2] (setting [6]), 4.52 to 6.00.
Take `CC(C)(O)C(O)c1cc2nc(-c3cnn(C(F)F)c3)c(N3CCN(Cc4ccc(F)cc4F)CC3)nc2cn1` (single isomer, unassigned) [Compound 585]: the negative-log IC50 (pIC50) in assay [1] (setting [5]) is over 7.00; in assay [2] (setting [6]), 6.00 to 7.00.
For the compound `COCCNc1cc2nc(-c3cnn(CF)c3)c(N3CCN(Cc4ccc(F)cc4F)CC3)nc2cn1` [Compound 762, (2-methoxyethyl)(3-{4-[(2,4-difluorophenyl)methyl]-1-piperazinyl}-2-[1-(fluoromethyl)-4-pyrazolyl]-1,4,6-triaza-7-naphthyl)amine], the pIC50 in assay [1] (procedure of Example 24) and in assay [2] (procedure of Example 24) was 4.52 to 6.00 in each case.
Consider `CCn1cc(-c2nc3c(nc2N2CCN(C(=O)c4ccc(Cl)cc4)CC2)CCN(C(C)=O)C3)cn1` [Compound 549, 1-{2-[4-(p-chlorobenzoyl)-1-piperazinyl]-3-(1-ethyl-4-pyrazolyl)-5,6,7,8-tetrahydro-1,4,6-triaza-6-naphthyl}-1-ethanone], for which the results for the negative-log IC50 (pIC50) in assay [1] (setting [5]) and in assay [2] (setting [6]) were 6.00 to 7.00 and 4.52 to 6.00, respectively.
Take `N#CCN1CCc2nc(N3CCC(Oc4ccc(F)cc4F)CC3)c(-c3cn[nH]c3)nc2C1` [Compound 119, 2-{2-[4-(2,4-difluorophenoxy)piperidin-1-yl]-3-(1H-pyrazol-4-yl)-5H,6H,7H,8H-pyrido[3,4-b]pyrazin-6-yl}acetonitrile]: the figures for the pIC50 in assay [1] (setting [3]) and in assay [2] (setting [4]) were 6.00 to 7.00 and 4.52 to 6.00, respectively.
The matching figures for `O=C(N1CCOCC1)N1CCc2nc(N3CCC(Oc4ccc(F)cc4F)CC3)c(-c3cn[nH]c3)nc2C1` [Compound 120, 4-{2-[4-(2,4-difluorophenoxy)piperidin-1-yl]-3-(1H-pyrazol-4-yl)-5H,6H,7H,8H-pyrido[3,4-b]pyrazine-6-carbonyl}morpholine]: 6.00 to 7.00 and 4.52 to 6.00.
In the case of `N#Cc1cc2nc(-c3cnn(CF)c3)c(N3CCN(Cc4ccc(F)cc4F)CC3)nc2cn1` [Compound 793, 3-{4-[(2,4-difluorophenyl)methyl]-1-piperazinyl}-2-[1-(fluoromethyl)-4-pyrazolyl]-1,4,6-triaza-7-naphthonitrile], the negative logarithm of the IC50 (pIC50) in assay [1] (procedure of Example 24) and in assay [2] (procedure of Example 24) was 4.52 to 6.00 in each case.
Regarding `CC(=O)N1CCc2nc(N3CCC([C@H](F)c4ccc(F)cc4F)CC3)c(-c3cnn(C)c3)nc2C1` (single isomer, unassigned) [Compound 658], the pIC50 in assay [1] (procedure of Example 24) is over 7.00; in assay [2] (procedure of Example 24) it was 6.00 to 7.00.
With `CC(=O)N1CCc2nc(N3CCC(Oc4ccc(F)cc4F)CC3)c(-c3cccc(NC(C)C)n3)nc2C1` [Compound 103, 1-{2-[4-(2,4-difluorophenoxy)piperidin-1-yl]-3-{6-[(propan-2-yl)amino]pyridin-2-yl}-5H,6H,7H,8H-pyrido [3,4-b]pyrazin-6-yl}ethan-1-one], the negative logarithm of the IC50 (pIC50) in assay [1] (setting [3]) is 4.52 to 6.00; in assay [2] (setting [4]), at most 4.52.
`COC[C@@](C)(O)c1cc2nc(-c3cnn(C)c3)c(N3CCC(Oc4ccc(F)cc4F)CC3)nc2cn1` (single isomer, unassigned) [Compound 688]: the negative logarithm of the IC50 (pIC50) in assay [1] (procedure of Example 24) and in assay [2] (procedure of Example 24) was 6.00 to 7.00 each time.
